Source: EP2876156A1 (COMMISSARIAT A L'ENERGIE ATOMIQUE ET AUX ENERGIES …, priority 2013, dated 2015)
Where two headings read alike, the source gives them in different places.

What was measured:
Type in all cases: biochemical
ENZ1 SEQ ID N°1 = target: T1, ENZ1 SEQ ID N°1 (Catenulispora acidiphila, UniProt C7QJ42); assay: Substrate selectivity screening of hydroxylase (conversion by HPLC after Fmoc-Cl derivatization)
T1 construct: His6 (hexahistidine, inserted after the initial methionine) (N); made in house; host or cells: E. coli BL21(DE3) plysE
T1 sequence (C7QJ42 1-358): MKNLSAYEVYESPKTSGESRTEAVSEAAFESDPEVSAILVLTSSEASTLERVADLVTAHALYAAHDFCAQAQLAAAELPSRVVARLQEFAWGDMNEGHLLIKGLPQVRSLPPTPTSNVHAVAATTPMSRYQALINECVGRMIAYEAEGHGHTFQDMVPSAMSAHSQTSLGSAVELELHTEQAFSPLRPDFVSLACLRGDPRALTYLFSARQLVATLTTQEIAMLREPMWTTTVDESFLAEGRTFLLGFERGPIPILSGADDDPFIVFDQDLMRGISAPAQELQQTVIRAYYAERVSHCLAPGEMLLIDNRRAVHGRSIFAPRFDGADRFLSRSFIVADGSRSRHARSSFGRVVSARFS
Experimental: (§1) Enzymatic reaction medium (0.2 µmole, leq.), borate buffer 0,2M pH 7.7 (80 µL) and Fmoc-Cl solution7.5 mM in acetone (100 µL, 0.75 µmole, 3.75 eq) were hand shaked in a closed 1.50 mL eppendorf for one minute. The aqueous layer was extracted with petroleum ether (3*1 mL) to eliminate excess of Fmoc-Cl. 70 µL of the aqueous phase were withdrawn, diluted with 70 µL of acetonitrile and injected into the HPLC. For substrates with two amine functions, 100 µL of Fmoc-Cl solution 15 mM were used.
(§2) Conditions for HPLC analysis: Atlantis® T3 (3 µm 4.5*150 mm) at 35°C with the gradient 50-86% eluent B (MeCN + 0.1% TFA) and eluent A (H2O + 0.1% TFA) in 20 min at 1 mL/min.
(§3) Enzymes (0.08 mg/mL) were screened against substrates (molar ratio α-ketoglutarate/substrate 15/10) in Hepes buffer 50 mM pH 7,5, with Mohr's salt at 1mM and without sodium ascorbate, at room temperature for three hours. The potential conversions of the substrates were determined by HPLC after Fmoc-Cl derivatization as section III here above.

ENZ4 SEQ ID NO:4 = target: T2, ENZ4 SEQ ID NO:4 (Catenulispora acidiphila, UniProt C7Q942); assay: as above
T2 construct: His6 (hexahistidine, inserted after the initial methionine) (N); made in house; host or cells: E. coli BL21(DE3) plysE
T2 sequence (C7Q942 1-343): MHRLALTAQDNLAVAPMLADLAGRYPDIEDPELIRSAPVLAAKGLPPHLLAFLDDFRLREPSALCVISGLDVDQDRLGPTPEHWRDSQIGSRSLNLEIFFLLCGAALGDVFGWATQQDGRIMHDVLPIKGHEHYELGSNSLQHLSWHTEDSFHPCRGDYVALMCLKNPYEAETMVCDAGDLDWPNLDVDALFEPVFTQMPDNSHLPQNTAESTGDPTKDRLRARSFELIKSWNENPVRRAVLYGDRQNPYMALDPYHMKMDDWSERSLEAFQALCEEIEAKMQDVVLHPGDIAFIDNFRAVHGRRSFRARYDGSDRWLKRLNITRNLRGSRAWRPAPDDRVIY
Experimental: as §1, §2, §3

ENZ2 SEQ ID NO:2 = target: T3, ENZ2 SEQ ID NO:2 (Flavobacterium johnsoniae, UniProt A5FF23)
T3 construct: His6 (hexahistidine, inserted after the initial methionine) (N); made in house; host or cells: E. coli BL21(DE3) plysE
T3 sequence (A5FF23 1-370): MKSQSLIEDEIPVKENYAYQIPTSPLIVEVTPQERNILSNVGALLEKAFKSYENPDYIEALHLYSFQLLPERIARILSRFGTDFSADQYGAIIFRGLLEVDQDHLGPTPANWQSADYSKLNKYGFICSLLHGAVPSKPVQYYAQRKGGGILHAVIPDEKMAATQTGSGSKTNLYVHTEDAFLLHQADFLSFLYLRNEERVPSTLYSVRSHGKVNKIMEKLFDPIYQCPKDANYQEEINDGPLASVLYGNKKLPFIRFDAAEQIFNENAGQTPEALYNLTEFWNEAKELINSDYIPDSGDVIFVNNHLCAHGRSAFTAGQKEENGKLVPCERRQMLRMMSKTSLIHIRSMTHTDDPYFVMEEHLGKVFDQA
Experimental: as §1, §2, §3

ENZ3 SEQ ID NO:3 = target: T4, ENZ3 SEQ ID NO:3 (Chitinophaga pinensis, UniProt C7PLM6)
T4 construct: His6 (hexahistidine, inserted after the initial methionine) (N); made in house; host or cells: E. coli BL21(DE3) plysE
T4 sequence (C7PLM6 1-382): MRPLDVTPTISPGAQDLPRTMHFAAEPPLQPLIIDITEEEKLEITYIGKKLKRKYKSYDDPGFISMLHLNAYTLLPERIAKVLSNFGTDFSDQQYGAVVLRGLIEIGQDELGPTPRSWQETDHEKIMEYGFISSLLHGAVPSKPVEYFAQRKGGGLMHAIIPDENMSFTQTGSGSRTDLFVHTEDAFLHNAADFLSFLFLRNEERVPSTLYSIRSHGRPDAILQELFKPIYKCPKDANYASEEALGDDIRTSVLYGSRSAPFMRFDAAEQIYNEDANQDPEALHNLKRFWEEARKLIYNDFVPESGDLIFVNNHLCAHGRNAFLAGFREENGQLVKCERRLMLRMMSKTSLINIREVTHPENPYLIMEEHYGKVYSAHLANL
Experimental: as §1, §2, §3

[1] = enzyme 0.08 mg/mL, molar ratio α-ketoglutarate/substrate 15/10, Hepes buffer 50 mM pH 7,5, Mohr's salt 1mM, without sodium ascorbate, room temperature, three hours

SMILES | potential conversions of the substrates, ENZ1 SEQ ID N°1 (ENZ1 SEQ ID N°1; [1]) | potential conversions of the substrates, ENZ4 SEQ ID NO:4 (ENZ4 SEQ ID NO:4; [1]) | potential conversions of the substrates, ENZ2 SEQ ID NO:2 (ENZ2 SEQ ID NO:2; [1]) | potential conversions of the substrates, ENZ3 SEQ ID NO:3 (ENZ3 SEQ ID NO:3; [1]) | potential conversions of the substrates, ENZ1 SEQ ID N°1 (ENZ1 SEQ ID N°1; pH 7) | potential conversions of the substrates, ENZ4 SEQ ID NO:4 (ENZ4 SEQ ID NO:4; pH 7) | potential conversions of the substrates, ENZ2 SEQ ID NO:2 (ENZ2 SEQ ID NO:2; pH 7) | potential conversions of the substrates, ENZ3 SEQ ID NO:3 (ENZ3 SEQ ID NO:3; pH 7)
COC(=O)[C@@H](N)CCCN [L-ornithine methyl ester] | negative | negative | negative | negative | – | – | – | –
CC(=O)N[C@@H](CCCCN)C(=O)O [Nα-acetyl-L-lysine] | negative | negative | negative | negative | – | – | – | –
N=C(N)NCCC[C@@H](N)C(=O)O [D-arginine] | negative | negative | negative | negative | – | – | – | –
NCCCCN [Putrescine] | – | – | – | – | negative | negative | negative | negative
NC[C@H](O)CC[C@H](N)C(=O)O [(5R)- hydroxy-L-lysine] | positive | negative | positive | positive | – | – | – | –
NCCSC[C@H](N)C(=O)O [Thia-L-lysine] | negative | negative | positive | positive | – | – | – | –
CCCCCC(N)C(=O)O (stereo not drawn) [2-aminoheptanoic acid] | negative | negative | negative | negative | – | – | – | –
CC(=O)N[C@@H](CCCN)C(=O)O [Nα-acetyl-L-ornithine] | negative | negative | negative | negative | – | – | – | –
NCCCCCC(=O)O [6-aminohexanoic acid] | negative | negative | negative | negative | – | – | – | –
CC(=O)N[C@@H](CCCNC(=N)N)C(=O)O [Nα-acetyl-L-arginine] | negative | negative | negative | negative | – | – | – | –
C[N+](C)(C)CCCC[C@H](N)C(=O)O [Nε-Me3-L-lysine] | negative | negative | negative | negative | – | – | – | –
NC(=O)NCCC[C@H](N)C(=O)O [L-citrulline] | negative | negative | negative | negative | – | – | – | –
NCCCC[C@@H](N)C(=O)O [D-lysine] | negative | negative | negative | negative | – | – | – | –
NCCC[C@H](N)CC(=O)O [β-L-lysine] | negative | negative | negative | negative | – | – | – | –
NCCCC[C@H](NC(=O)[C@@H](N)CCCCN)C(=O)O [L-Lysil-L-lysine] | negative | negative | negative | negative | – | – | – | –
NC(CCCC(=O)O)C(=O)O (stereo not drawn) [2-aminoadipic acid] | negative | negative | negative | negative | – | – | – | –
COC(=O)[C@@H](N)CCCNC(=N)N [L-arginine methyl ester] | negative | negative | negative | negative | – | – | – | –
COC(=O)[C@@H](N)CCCCN [L-lysine methyl ester] | negative | negative | negative | negative | – | – | – | –
NCCCCCN [Cadaverine] | negative | negative | negative | negative | – | – | – | –
NCCC[C@H](O)[C@H](N)C(=O)O [(3S)- hydroxy-L-lysine] | – | negative | positive | positive | – | – | – | –
N[C@H]1CCCCNC1=O [L-(-)-α-Amino-ε-caprolactam] | negative | negative | negative | negative | – | – | – | –
CNCCCC[C@H](N)C(=O)O [Nε-Me-L-lysine] | negative | negative | negative | negative | – | – | – | –
